Where two headings read alike, the source gives them in different places.
Tests used:
[1] = tested on: Influenza virus A/Puerto Rico/8/34 (PR8; H1N1); assay: organism not typed; type: cell-based; conditions: for EC50: read-out: Antiviral activity (EC50) Flu A H1N1 PR8; for Selectivity index Flu A H1N1 PR8: MDCK cells
[2] = in vitro; conditions: dog
[3] = tested on: Influenza virus A/Hong Kong/8/68 (HK: H3N2); assay: organism not typed; type: cell-based; conditions: for Selectivity index Flu A H3H2 Hong Kong: MDCK cells; for EC50: read-out: Antiviral activity (EC50) Flu A H3N2 Hong Kong
[4] = tested on: Influenza virus B/Lee/40 (Lee); assay: microbe, parasite or virus in culture; type: cell-based; conditions: for EC50: read-out: Antiviral activity (EC50) Flu B Lee; for Selectivity index Flu B Lee: MDCK cells
[5] = tested on: DENV-2 replicon; assay: microbe, parasite or virus in culture; type: cell-based; conditions: for S.I., Selectivity index = CC50/EC50: DENV-2, BHK-21 cells
[6] = Cytotoxicity in mock-infected MDCK cells (MTT); conditions: dog, mock-infected MDCK cells
[7] = tested on: Vero cells; conditions: for CC50: read-out: CC50, cytotoxicity, 2 days
[8] = tested on: SARS-COV-2 (BetaCoV/Korea/KCDC03/2020); assay: Image-based anti-SARS-COV-2 assay in Vero cells (anti-spike antibody); type: cell-based
[9] = in vitro; conditions: for CC50: African green monkey
[10] = tested on: DENV-2 replicon BHK-21 (DENV2-BHK) cells; assay: MTT cytotoxicity assay in DENV-2 replicon BHK-21 cells; conditions: for CC50: read-out: CC50, 50% cytotoxic concentration, BHK-21 cells, MTT
[11] = as above; conditions: hamster
[12] = tested on: MDCK cells; assay: Cytotoxicity in mock-infected MDCK cells (MTT); conditions: read-out: Toxicity (CC50); MDCK cells, 3 days
[13] = unidentified influenza virus, MDCK, 72 h
[14] = Dengue virus, DENV2, BHK-21, read-out: EC50, 50% effective concentration, anti-DENV-2 activity
[15] = Severe acute respiratory syndrome coronavirus 2, Vero, 48 h
[16] = read-out: EC50, 50% effective concentration, anti-DENV-2 activity, DENV-2 replicon BHK-21 cells, luciferase

| Structure (SMILES) | EC50 ([1]; MDCK, 72 h) | Selectivity index Flu A H3H2 Hong Kong [3] | EC50 ([3]; MDCK, 72 h) | EC50 [4, 13] | EC50 [5, 14] | EC50 [8, 15] | CC50 [9] | CC50 [10] | EC50 [1] | EC50 [5, 16] | CC50 [12] | EC50 [3] | CC50 [7] | EC50 [8] | EC50 [4] | also measured |
| --- | --- | --- | --- | --- | --- | --- | --- | --- | --- | --- | --- | --- | --- | --- | --- | --- |
| NC12CC3CC(CC(C3)C1)C2 [AMT, Amantadine] | > 100 µM | >15.6 | 6.4 µM | > 100 µM |  |  |  |  |  |  |  |  |  |  |  | CC50 [2]: > 100 µM |
| CC(C)C(=O)ONc1ccn([C@@H]2O[C@H](CO)[C@@H](O)[C@H]2O)c(=O)n1 [Compound 5a, 1-((2R,3R,4S,5R)-3,4-Dihydroxy-5-(hydroxymethyl)tetrahydrofuran-2-yl)-4-((isobutyryloxy)amino)pyrimidin-2 (1H)-one] | 5.8 µM | >13.7 | 7.3 µM | 3.4 µM | 3.95 µM | 3.5 µM | > 100 µM | 10.8 µM |  |  |  |  |  |  |  | Selectivity index Flu A H1N1 PR8 [1]: >17.2; S.I., Selectivity index = CC50/EC50 [5]: 2.74; EC50 value improved over the ester precursor 7 ([5]; DENV-2 replicon): about 6 fold; EC50 value increased compared to the parent Compound 6 ([5]; DENV-2 replicon): about 2 fold; CC50 at 3 days [6]: > 100 µM; Cytotoxicity improved compared to the parent Compound 6 ([7]; SARS-COV-2 test): ≥ 6 times; Antiviral activity improved compared to the parent Compound 6 ([8]; SARS-COV-2): about 5 times; Antiviral activity improved over the other ester precursor 7 ([8]; SARS-COV-2): 3.5 fold; CC50 at 2 days ([9]; chlorocebus sabaeus): > 100 µM; Cytotoxicity reduced compared to the parent Compound 6 ([10]; DENV-2 replicon cells): 2 fold; Selectivity index Flu B Lee [4]: >29.4 |
| O=c1nc(NCCO)ccn1[C@@H]1O[C@H](CO)[C@@H](O)[C@H]1O [Compound 5b, 1-((2R,3R,4S,5R)-3,4-Dihydroxy-5-(hydroxymethyl)tetrahydrofuran-2-yl)-4-((2-hydroxyethyl)amino)pyrimidin-2 (1H)-one] | > 100 µM |  | > 100 µM | > 100 µM | > 100 µM | > 100 µM | > 100 µM |  |  |  |  |  |  |  |  | Anti-Flu A/B activity (in words) ([1]; Flu A (H1N1, H3N2) and Flu B together): did not exhibit significant anti-Flu A/B activity; Anti-DENV activity in replication assays (in words) ([5]; DENV-2 replicon): did not exhibit significant anti-DENV activity; CC50 at 3 days [2]: > 100 µM; Biological SARS-COV-2 activity (in words) ([8]; Vero cells): did not show significant biological SARS-COV-2 activity; CC50 [11]: > 100 µM |
| CCOC(=O)CNc1ccn([C@@H]2O[C@H](CO)[C@@H](O)[C@H]2O)c(=O)n1 [Compound 5c, Ethyl(1-((2R,3R,4S,5R)-3,4-dihydroxy-5-(hydroxymethyl)tetrahydrofuran-2-yl)-2-oxo-1,2-dihydropyrimidin-4-yl)glycinate] |  |  |  |  |  |  |  | > 100 µM | > 100 µM | > 100 µM | > 100 µM | > 100 µM | > 100 µM | > 100 µM | > 100 µM |  |
| CCOC(=O)[C@H](C)Nc1ccn([C@@H]2O[C@H](CO)[C@@H](O)[C@H]2O)c(=O)n1 [Compound 5d, Ethyl(1-((2R,3R,4S,5R)-3,4-dihydroxy-5-(hydroxymethyl)tetrahydrofuran-2-yl)-2-oxo-1,2-dihydropyrimidin-4-yl)-L-alaninate] |  |  |  |  |  |  |  | > 100 µM | > 100 µM | > 100 µM | > 100 µM | > 100 µM | > 100 µM | > 100 µM | > 100 µM |  |
| CCOC(=O)[C@H](CC(C)C)Nc1ccn([C@@H]2O[C@H](CO)[C@@H](O)[C@H]2O)c(=O)n1 [Compound 5e, Ethyl(1-((2R,3R,4S,5R)-3,4-dihydroxy-5-(hydroxymethyl)tetrahydrofuran-2-yl)-2-oxo-1,2-dihydropyrimidin-4-yl)-L-leucinate] |  |  |  |  |  |  |  | > 100 µM | > 100 µM | > 100 µM | > 100 µM | > 100 µM | > 100 µM | > 100 µM | > 100 µM |  |
| CCOC(=O)[C@H](Cc1ccccc1)Nc1ccn([C@@H]2O[C@H](CO)[C@@H](O)[C@H]2O)c(=O)n1 [Compound 5f, Ethyl(1-((2R,3R,4S,5R)-3,4-dihydroxy-5-(hydroxymethyl)tetrahydrofuran-2-yl)-2-oxo-1,2-dihydropyrimidin-4-yl)-L-phenylalaninate] |  |  |  |  |  |  |  | > 100 µM | > 100 µM | > 100 µM | > 100 µM | > 100 µM | > 100 µM | > 100 µM | > 100 µM |  |
| O=c1nc(NO)ccn1[C@@H]1O[C@H](CO)C(O)[C@@H]1O (stereo partly drawn) [Compound 6, β-D-N^4-hydroxycytidine, reference compound] | 1.7 µM | >43.5 | 2.3 µM | < 1.2 µM | 2.84 µM | > 16.5 µM | 16.5 µM |  |  |  |  |  |  |  |  | Selectivity index Flu A H1N1 PR8 [1]: >58.8; S.I., Selectivity index = CC50/EC50 [5]: 2.02; CC50 at 3 days [2]: > 100 µM; CC50 [11]: 5.75 µM |
| CC(C)C(=O)OC[C@H]1O[C@@H](n2ccc(NO)nc2=O)[C@@H](O)C1O (stereo partly drawn) [Compound 7, reference compound] | 6.6 µM | >16.7 | 6 µM | 23.8 µM | 23.4 µM | 11.8 µM | > 100 µM |  |  |  |  |  |  |  |  | Selectivity index Flu A H1N1 PR8 [1]: >15.2; S.I., Selectivity index = CC50/EC50 [5]: 1.81; CC50 at 3 days [6]: > 100 µM; CC50 [11]: 42.2 µM; Selectivity index Flu B Lee [4]: >4.2 |
| NC(=O)c1nc(F)cnc1O [Compound T-705, 6-fluoro-3-hydroxy-2-pyrazinecarboxamide, reference compound] | 3.2 µM |  | 8.5 µM | 7.6 µM |  |  |  |  |  |  |  |  |  |  |  | CC50 at 3 days [6]: > 100 µM; Selectivity index Flu B Lee [4]: >13.2 |
| NC(=O)c1ncn([C@@H]2O[C@H](CO)[C@@H](O)[C@H]2O)n1 [RBV, Ribavirin, reference compound] |  |  |  | 33.3 µM | 1.16 µM |  |  | 5.46 µM |  |  |  |  |  |  |  |  |
| CCC(CC)COC(=O)[C@H](C)N[P@](=O)(OC[C@H]1O[C@@](C#N)(c2ccc3c(N)ncnn23)[C@H](O)[C@@H]1O)Oc1ccccc1 [Remdesivir, reference compound] |  |  |  |  |  |  | > 100 µM |  |  |  |  |  |  |  |  |  |
